Assay results published in article PMC9722314, “Solubility Enhancement of a Poorly Water-Soluble Drug Using Hydrotropy and Mixed Hydrotropy-Based Solid Dispersion Techniques” (Advances in Pharmacological and Pharmaceutical Sciences, 2022).
Several values for one entry are separate records, joined by “and”; a condition that tells them apart may be missing. Identical values can stand only once.

How the values were obtained:
[1] = Equilibrium solubility of rosuvastatin calcium in single hydrotropic agent solutions; assay type: physicochemical; conditions: for solubility thermodynamic at 24 h: aqueous hydrotropic agent solution, 37 °C, aqueous with cosolvent or surfactant or cyclodextrin, thermodynamic from solid
Procedure: At first, equilibrium solubility investigations were conducted with a variety of hydrotropic agents. […] In a 10 ml vial, 5 ml of a specific hydrotropic agent solution was accurately measured, and an excess of rosuvastatin calcium was added and physically agitated for 30 minutes until a saturated solution was generated. To achieve equilibrium solubility, the vial was shaken on a mechanical isothermal bath shaker at 37 ± 0.5°C for 24 hours, and the solution was allowed to equilibrate for another 24 hours. The resulting solution was filtered with a grade of 0.45 μm syringe filter. A portion of the sample was diluted with distilled water and examined at 242 nm using a UV-visibledouble-beam spectrophotometer against the respective solvent as a blank. The equilibrium solubility study was conducted in triplicate. The following formula was used for the calculation of solubility enhancement ratios:(1) Enhancement ratio=Solubility of drug in hydrotropic solution/Solubility of drug in water. Equation (1) is used for the calculation of the solubility enhancement ratio.

[2] = Saturated solubility study in distilled water (pure drug, solid dispersions, physical mixture); assay type: physicochemical; conditions: 37 °C, thermodynamic from solid, 37 ± 0.5°C, 24 h shaking + 24 h equilibration
Procedure: To assess the solubility of pure rosuvastatin calcium, produced solid dispersions, and physical mixtures in distilled water, saturation solubility tests were performed. The saturation solubility tests were performed in triplicate according to Higuchi and Connors' technique. The excess of solid dispersions and physical mixtures were added to vials containing 10 ml of distilled water. The vials were shaken for 24 hours on a mechanical isothermal bath shaker at 37 ± 0.5°C and then left alone for another 24 hours to equilibrate. A syringe filter with a grade of 0.45 μm was used to filter the drug-containing solution. An aliquot of the filtrate was suitably diluted with the corresponding reagent, and the dilution was analyzed on a UV-visibledouble-beam spectrophotometer [18].

[3] = Equilibrium solubility of rosuvastatin calcium in mixed hydrotropic solutions; assay type: physicochemical; conditions: total 40%; for solubility at 24 h: mixed hydrotropic agent solution in distilled water; for solubility at 24 h / solubility: 37 °C, aqueous with cosolvent or surfactant or cyclodextrin, thermodynamic from solid; for solubility: mixed hydrotropic solution in distilled water
Procedure: In order to create a clear solution, two to three hydrotropic agents were mixed and dissolved in distilled water. Next, an excessive amount of calcium rosuvastatin was added, and the mixture was shaken until no more rosuvastatin was dissolved. The solutions are mechanically shaken on a mechanical isothermal bath shaker at 37 ± 0.5°C for 24 hours, followed by another 24 hours of equilibration. A grade of 0.45 μm syringe filter was used to filter the resultant solution. Using a UV-visibledouble-beam spectrophotometer, a portion of the material was diluted with distilled water and analyzed at 242 nm. The equilibrium solubility studies were conducted in triplicate. To obtain optimal solubility of rosuvastatin calcium in water, a ratio of three hydrotropic agents was adjusted.

[4] = due to limited water solubility; cited from earlier work
[5] = parameters: method as in earlier work; conditions: sodium salicylate (2.0 M); ref 18 (Nainwal et al.); cited from earlier work
[6] = In vitro dissolution rate study, USP apparatus I (basket); assay type: physicochemical; conditions: within 45 min; 900 ml 0.05 M citrate buffer pH 6.6, 50 rpm, 37°C, 10 mg drug; listed as pure drug
Procedure: In vitro dissolution of rosuvastatin calcium solid dispersions, physical mixtures, and the pure drug was investigated using a basket stirrer in a USP dissolution apparatus (Industrial Lab) (USP apparatus I method). The dissolution medium was 900 ml of 0.05 M citrate buffer at pH 6.6, which is recommended by the US Food and Drug Administration for dissolution studies with rosuvastatin calcium. The rotation speed was 50 rpm, and the temperature was kept constant at 37 ± 0.5°C during the experiment. Each test employed solid dispersions containing 10 mg of rosuvastatin calcium. At known intervals of time of 5, 10, 15, 20, 25, 30, and 45 minutes, 5 ml of the dissolution medium sample was removed and refilled with the same quantity of medium to maintain a consistent volume throughout the experiment. The withdrawn material was filtered using a 0.45 μm syringe filter. After dilution with a 0.05 M citrate buffer solution, the samples were spectrophotometrically analyzed by detecting the absorbance at 241 nm. […] The dissolution studies of each formulation were conducted in triplicate.

[7] = cited from earlier work

CC(C)c1nc(N(C)S(C)(=O)=O)nc(-c2ccc(F)cc2)c1/C=C/[C@@H](O)C[C@@H](O)CC(=O)O [rosuvastatin calcium, Rosuvastatin calcium]
solubility thermodynamic at 24 h ([1]; citric acid 10% w/v aqueous solution): 0.45 ± 0.003 mg/mL
solubility thermodynamic at 24 h ([1]; citric acid 20% w/v aqueous solution): 0.75 ± 0.05 mg/mL
solubility thermodynamic at 24 h ([1]; citric acid 30% w/v aqueous solution): 0.78 ± 0.1 mg/mL
solubility thermodynamic at 24 h ([1]; citric acid 40% w/v aqueous solution): 0.93 ± 0.17 mg/mL
solubility thermodynamic at 24 h ([1]; mannitol 10% w/v aqueous solution): 0.49 ± 0.13 mg/mL
solubility thermodynamic at 24 h ([1]; mannitol 20% w/v aqueous solution): 0.599 ± 0.09 mg/mL
solubility thermodynamic at 24 h ([1]; mannitol 30% w/v aqueous solution): 0.66 ± 0.1 mg/mL
solubility thermodynamic at 24 h ([1]; mannitol 40% w/v aqueous solution): 0.89 ± 0.028 mg/mL
solubility thermodynamic at 24 h ([1]; sodium benzoate 10% w/v aqueous solution): 22.9 ± 1.46 mg/mL
solubility thermodynamic at 24 h ([1]; sodium benzoate 20% w/v aqueous solution): 39 ± 4.53 mg/mL
solubility thermodynamic at 24 h ([1]; sodium benzoate 30% w/v aqueous solution): 103 ± 14.1 mg/mL
solubility thermodynamic at 24 h ([1]; sodium benzoate 40% w/v aqueous solution): 119 ± 13.8 mg/mL
solubility thermodynamic at 24 h ([1]; sodium salicylate 10% w/v aqueous solution): 27 ± 1.04 mg/mL
solubility thermodynamic at 24 h ([1]; sodium salicylate 20% w/v aqueous solution): 49.9 ± 2.58 mg/mL
solubility thermodynamic at 24 h ([1]; sodium salicylate 30% w/v aqueous solution): 97.3 ± 4.13 mg/mL
solubility thermodynamic at 24 h ([1]; sodium salicylate 40% w/v aqueous solution): 125 ± 1.8 mg/mL
solubility thermodynamic at 24 h ([1]; urea 10% w/v aqueous solution): 0.85 ± 0.07 mg/mL
solubility thermodynamic at 24 h ([1]; urea 20% w/v aqueous solution): 1.06 ± 0.08 mg/mL
solubility thermodynamic at 24 h ([1]; urea 30% w/v aqueous solution): 1.13 ± 0.16 mg/mL
solubility thermodynamic at 24 h ([1]; urea 40% w/v aqueous solution): 1.36 ± 0.1 mg/mL
Solubility enhancement ratio ([1]; citric acid solution vs water (fits the 40% w/v value)): 2.192
Solubility enhancement ratio ([1]; mannitol solution vs water (fits the 40% w/v value)): 2.085
Solubility enhancement ratio ([1]; sodium benzoate solution vs water (fits the 40% w/v value)): 277.556
Solubility enhancement ratio ([1]; sodium salicylate solution (40%) vs water, listed as Rosuvastatin calcium): 292.961
Solubility enhancement ratio ([1]; sodium salicylate solution (40%) vs water, listed as rosuvastatin): 292.9
Solubility enhancement ratio ([1]; urea solution vs water (fits the 40% w/v value)): 3.198
solubility [2]: 0.427 ± 0.005 mg/mL
Solubility enhancement ratio ([3]; SS : C 20 : 20 % w/v, vs water): 76.015
Solubility enhancement ratio ([3]; SS : M 20 : 20 % w/v, vs water): 128.66
Solubility enhancement ratio ([3]; SS : SB 5 : 35 % w/v, vs water): 189.78
Solubility enhancement ratio ([3]; SS : SB 10 : 30 % w/v, vs water): 120.01
Solubility enhancement ratio ([3]; SS : SB 15 : 25 % w/v, vs water): 389.37
Solubility enhancement ratio ([3]; SS : SB 20 : 20 % w/v, vs water): 421.02
Solubility enhancement ratio ([3]; SS : SB : C, each 13.333 % w/v, vs water): 112.005
Solubility enhancement ratio ([3]; SS : SB : M, each 13.333 % w/v, vs water): 172.722
Solubility enhancement ratio ([3]; SS : SB : U 10 : 15 : 15 % w/v, vs water): 200.265
Solubility enhancement ratio ([3]; SS : SB : U 20 : 05 : 15 % w/v, vs water): 210.314
Solubility enhancement ratio ([3]; SS : SB : U 20 : 10 : 10 % w/v, vs water): 235.414
Solubility enhancement ratio ([3]; SS : SB : U 20 : 15 : 05 % w/v, vs water): 301.328
Solubility enhancement ratio ([3]; SS : SB : U, each 13.333 % w/v, vs distilled water): 449.137
Solubility enhancement ratio ([3]; SS : SB : U, each 13.333 % w/v, vs distilled water, listed as rosuvastatin): 449
Solubility enhancement ratio ([3]; SS : U 20 : 20 % w/v, vs water): 181.65
solubility at 24 h ([3]; SS : C 20 : 20 % w/v): 32.5 ± 0.52 mg/mL
solubility at 24 h ([3]; SS : M 20 : 20 % w/v): 55 ± 2.72 mg/mL
solubility at 24 h ([3]; SS : SB 5 : 35 % w/v): 81.1 ± 1.54 mg/mL
solubility at 24 h ([3]; SS : SB 10 : 30 % w/v): 51.3 ± 3.38 mg/mL
solubility at 24 h ([3]; SS : SB 20 : 20 % w/v): 180 ± 40.1 mg/mL
solubility at 24 h ([3]; SS : SB : U, each 13.333 % w/v): 192 ± 38.6 mg/mL
solubility at 24 h ([3]; SS : U 20 : 20 % w/v): 77.6 ± 2.31 mg/mL
solubility ([3]; SS : SB 15 : 25 % w/v): 166 ± 7.24 mg/mL
solubility ([3]; SS : SB : C, each 13.333 % w/v): 47.9 ± 1.43 mg/mL
solubility ([3]; SS : SB : M, each 13.333 % w/v): 73.8 ± 1.49 mg/mL
solubility ([3]; SS : SB : U 10 : 15 : 15 % w/v): 85.6 ± 1.74 mg/mL
solubility ([3]; SS : SB : U 20 : 05 : 15 % w/v): 89.9 ± 5.18 mg/mL
solubility ([3]; SS : SB : U 20 : 10 : 10 % w/v): 101 ± 12.7 mg/mL
solubility ([3]; SS : SB : U 20 : 15 : 05 % w/v): 129 ± 4.02 mg/mL
solubility ([3]; SS : SB : U, each 13.333 % w/v): 192 ± 38.6 mg/mL
Biopharmaceutics classification system (BCS) class [4]: class II
Increase in solubility [5]: 55 folds
In vitro drug release [6]: 40.73 ± 4.44% and 40.73%
t1/2 [7]: 19 h
Oral bioavailability ([7]; oral): roughly 20%
